Test results reported in paper PMC9447362.
Read-outs that look alike come from different tables or passages of the source.

System: P4 G4
Assay: In vitro translation (IVT) assays
Assay type: biochemical, SARS-CoV-2

NCCOc1cc(C(=O)Nc2cc(OCCN3CCCC3)c3ccccc3n2)nc(C(=O)Nc2cc(OCCN3CCCC3)c3ccccc3n2)c1 [PDP]
IVT of P4-Mut (P4-Mut (G/A mutations)): not for P4-Mut

C[n+]1ccc(-c2c3nc(c(-c4cc[n+](C)cc4)c4ccc([nH]4)c(-c4cc[n+](C)cc4)c4nc(c(-c5cc[n+](C)cc5)c5ccc2[nH]5)C=C4)C=C3)cc1 [TMPyP4, 5,10,15,20-tetrakis-(N-methyl-4-pyridyl)porphine]
IVT of P4-Mut: not for P4-Mut
